Results on 2 compounds are retold here after article PMC7613515, “Reading and erasing of the phosphonium analogue of trimethyllysine by epigenetic proteins” (Communications Chemistry, 2022).

Series [1] deals with T1, BPTFPHD (L2583–N2751) (Homo sapiens, UniProt Q12830).
T1 construct: BPTFPHD (L2583–N2751); made in house; host or cells: E. coli
Nature of the series: ITC, association of histone H3 peptides with BPTFPHD. The series is classed as binding. For orientation: ITC needs no label: the signal is the heat of the interaction.
Method: Isothermal titration calorimetric (ITC) analyses were used to determine the dissociation constant (Kd), the Gibbs free energy of binding (ΔG°), the enthalpy of binding (ΔH°), and the entropy of binding (ΔS°).
ITC studies followed a reported procedure[26]. The buffer used corresponded to that used in the final protein purification step. Briefly, TAF3PHD and KDM4ATTD: [Tris (50 mM) in water (pH 7.5)]; KDM5APHD3 and BTPFPHD: [Tris (50 mM), NaCl (20 mM) in water (pH 7.5)]; [Tris (25 mM), NaCl (50 mM), 1,4-dithiothreitol (1.0 mM) in water (pH 7.5)]. Experiments were conducted using ITC200 automated (GE Healthcare Life Sciences, USA) instrument at 25 °C. Histone peptide titrations were performed with the same reader batches. Solutions of the reader in buffer (25–40 µM) and of the histone H3 peptide (350–600 µM) in buffer were prepared. The prepared solutions were plated into a 96-well plate and inserted into the instrument for analysis. Experiments were performed according to manufacturer’s default settings: Plate pre-rinse syringe clean. A total of 19 injections were performed; each experiment was repeated 3–5 times. Heats of dilution for histone peptides determined in control experiments were subtracted from the titration binding data.

The conditions of series [2]: cited from earlier work. The text has this:
Some JmjC KDMs can also catalyse N-methyl arginine demethylation and with appropriately sized N^ε-substitutions some can catalyse forma ...

Series [3] concerns the target T2, KDM4EJmjC (M1–Q337) (Homo sapiens, UniProt B2RXH2).
T2 construct: We chose human KDM4EJmjC (M1–Q337); made in house
T2 sequence (B2RXH2 1-337): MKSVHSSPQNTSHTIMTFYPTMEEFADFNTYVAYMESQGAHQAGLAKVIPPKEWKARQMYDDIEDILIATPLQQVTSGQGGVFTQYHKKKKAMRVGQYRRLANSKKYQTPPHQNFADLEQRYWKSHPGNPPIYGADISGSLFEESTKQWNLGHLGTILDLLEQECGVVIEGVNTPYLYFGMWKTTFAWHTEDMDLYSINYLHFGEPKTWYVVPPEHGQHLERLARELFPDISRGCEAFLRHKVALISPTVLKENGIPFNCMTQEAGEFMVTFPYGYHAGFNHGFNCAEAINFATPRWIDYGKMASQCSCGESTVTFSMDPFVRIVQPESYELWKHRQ
Nature of the series: MALDI-TOF demethylation assay, KDM4EJmjC. The series is classed as biochemical. Here is the method: Reactions were monitored using MALDI-TOF mass spectrometry (Fig. 5b–d).
A Bruker Daltonics MALDI-TOF/TOF AutoflexSpeed machine and Bruker MTP 384 target plates (polished steel BC, Part: 8280781) were used. The machine was controlled using Flex control (v. 3.4 build 135.10) and Compass for flex series (v. 1.4) software. Measurements were in the positive ion mode with the reflectron mode enabled. Incubations employed ProxiPlate-384™ (Perkin Elmer) plates into which was pipetted a solution of [H3_1-15K9me3 (10.0 µM), (+)-sodium L-ascorbate (1.0 mM), (NH4)2Fe(II)(SO4)2 (100 µM), di-sodium 2-oxoglutarate (200 µM) in buffer (HEPES (50 mM)) in MilliQ (pH 7.5)] (5.0 µL) using ClipTip™ (Thermo Scientific™) pipette tips and E1-ClipTip™ (Thermo Scientific™). The enzyme solution [KDM4EJmjC (1.0 µM) in HEPES (50 mM)] (5.0 µL) was added to initiate reaction at 37 °C. Reactions were quenched with formic acid in water (2%, 5.0 µL). Samples were then spotted onto a MALDI-TOF target plate (1.0 µL), MALDI matrix [sat. sol. α-cyano-4-hydroxy-cinnamic acid (10 mg·mL^−1) in {trifluoro acetic acid, acetonitrile and MilliQ (0.1:50:50)}] (1.0 µL) was added, mixed, and dried in air. Samples were then analysed by MALDI-TOF. Specific experiments were supplemented with catalase from bovine liver (C3155-50MG, Merck) (5.0 µM), bovine albumin serum (BSA, Perkin Elmer, CR84-100, DTPA purified 7.5%) (5.0 µM), or Tris(carboxyethyl)phosphine hydrochloride salt (TCEP, M02624, Fluorochem) (500 µM).

Series [4] addresses T2, KDM4EJmjC (M1–Q337). Nature of the series: NMR demethylation assay (1H, 31P), KDM4EJmjC. The series is classed as biochemical. The following applies: KDM4EJmjC 50 µM. Here is the method:
Incubations of H3_1-15KP9me3 with KDM4EJmjC were performed in Eppendorf tubes (1.5 mL). Conditions used for ^1H and ^31P NMR time-courses: H3_1-15KP9me3 (250 µM) was incubated with KDM4EJmjC (50 µM), sodium ascorbate (1.00 mM), 2OG (500 µM), and Fe(NH4)2(SO4)2 (100 µM) in HEPES-d18 buffer (50 mM, pH 7.5) in D2O ( > 95% ^2H). Reactions (160 µL total volume) were quenched by addition of HCl (1 M, 10 equivalents) after the indicated time. The samples were centrifuged (1 min, 14,500 rpm) and the supernatant transferred to an NMR tube (3 mm, Norell). For characterisation of the products from the incubation of H3_1-15KP9me3 with KDM4EJmjC the following conditions were used: Peptide H3_1-15KP9me3 (500 µM) was incubated with sodium ascorbate (1.00 mM) 2-oxoglutarate (1.00 mM), Fe(NH4)2(SO4)2 (100 µM), and KDM4EJmjC (50.0 µM), in HEPES-d18 buffer (50 mM, pH 7.5) in D2O (>95% ^2H) for 1 hour. Reactions were quenched by addition of HCl (1 M, 10 equivalents), or by heating (95 °C, 10 min). Precipitated proteins were removed by centrifugation (1 min, 14,500 rpm) and the supernatant transferred to an NMR tube (3 mm, Norell). Spectra were measured using a Bruker 600 MHz machine and analysed using MestReNova 14.1 (MestReLabs, Spain; www.mestrelab.com) and Topspin 3.6.1 (Bruker, Germany; www.bruker.com). […]

Where [5] appears, read: 25 °C, H3 1-10 peptide, Tris (50 mM), NaCl (20 mM), pH 7.5, from 3 to 5 experiments, ± SD.

As for `C[C@H](N)C(=O)N[C@@H](CCCNC(=N)N)C(=O)N[C@H](C(=O)N[C@@H](CCCC[P+](C)(C)C)C(=O)N[C@@H](CCC(N)=O)C(=O)N[C@H](C(=O)N[C@@H](C)C(=O)N[C@@H](CCCNC(=N)N)C(=O)N[C@@H](CCCCN)C(=O)N[C@@H](CO)C(N)=O)[C@@H](C)O)[C@@H](C)O` [H3KP4me3], in series [1] (setting [5]), the “-TΔS°” value was 4.7 ± 0.1 kcal/mol, the “ΔG°” value is -9.1 ± 0.1 kcal/mol and the “ΔH°” value is -13.8 ± 0.1 kcal/mol. Also, the “fold stronger binding (ΔKd), H3KP4me3 versus H3K4me3” value in series [1] (BPTFPHD) is recorded as ~ 7 fold. In addition, in series [2] (C-P bond in H3KP4me3, C-N bond in H3K4me3), the “bond length (C-P or C-N)” value is given as 1.87 Å.
On to “ARTKQTAR(KPme3)STGGKA [H3KP9me3, histone H3 residues 1–15 with trimethylphosphonium lysine analogue at position 9]”, for which the “demethylation in competition assay” value in series [3] (H3K9me3 (5.0 µM) and H3KP9me3 (5.0 µM) in the same vessel, KDM4EJmjC 0.5 µM) is “no evidence that H3KP9me3 was converted to H3KP9me2 or H3KP9me2O”. Besides, the “relative substrate quality / rate” value in series [3] (H3K9me3 versus H3KP9me3) is reported as “demethylation rate is significantly slower for H3KP9me3 than for H3K9me3”. In series [3] (H3KP9me3: without KDM4EJmjC, Asc, Fe(II) or 2OG, H3K9me3: without Asc and Fe(II), 1 hr), the “demethylation in omission controls” value is reported as “little or no H3KP9me2 or H3KP9me2O formation”. The “demethylation” value in series [3] (KDM4EJmjC 0.5 µM (H3KP9me3 also at 5.0 µM enzyme), peptide 5.0 or 6.0 µM, Asc 500 µM, Fe(II) 50 µM, 2OG 100 µM) is “only undergo a single demethylation (−14 Da) to give H3KP9me2”; in series [4] (1H and 31P NMR, H3KP9me3 250 or 500 µM, HEPES-d18 pH 7.5 in D2O), “the reaction proceeded to give signals corresponding to H3KP9me2 and H3KP9me2O”. For the same compound, the “effect of catalase with or without Asc or BSA” value in series [3] (KDM4EJmjC 0.5 µM, catalase 5.0 µM, BSA 5.0 µM) was “did not substantially alter the amounts of H3KP9me2 or H3KP9me2O”. In series [3] (TCEP as a reducing agent, KDM4EJmjC 0.5 µM), the “yield with TCEP rather than Asc” value was “slightly increased yields of H3KP9me2 and H3KP9me2O”. Also, the “product formation” value in series [3] (stoichiometric: KDM4EJmjC 5.0 µM, peptide 5.0 µM) was “faster H3KP9me2 and H3KP9me2O product formation, but no evidence for H3KP9me1 or H3KP9 formation”. The “demethylation with 2OG turnover to succinate” value in series [4] (NMR time-course, H3KP9me3 250 µM) was “confirmed demethylation and conversion of 2OG to succinate”. In addition, in series [2] (H3KP9me3 compared to H3K9me3), the “volume difference Δ[^+Pme4-^+Nme4]” value is reported as 10 Å^3.
